Patent US20050032822A1, “Dithiocarbamate derivatives and their use as antibacterial agents” (priority 2001, published 2005)
In brackets after ≈: the same amount, converted by molar mass.

Assays:
Type in all cases: cell-based
Details in all cases: Mueller-Hinton broth
M. fortuitum B = assay: MIC, micro broth dilution, M. fortuitum B
[1] = tested on: multiresistent staphylococci (MRSA) strain 994/93; assay: MIC, micro broth dilution, MRSA 994/93
[2] = tested on: Mycobacterium smegmatis SG 987; assay: MIC, micro broth dilution, M. smegmatis SG 987
M. vaccae IMET 1010670 = assay: MIC, micro broth dilution, M. vaccae IMET 10670
M aureum SB66 = assay: MIC, micro broth dilution, M. aureum SB66
[3] = tested on: multiresistent staphylococci (MRSA) strain 134/93; assay: MIC, micro broth dilution, MRSA 134/93

Compound	minimal inhibitory concentrations MIC, M. fort. (M. fortuitum B) [µg/mL]	minimal inhibitory concentrations MIC, 994/93 [1] [µg/mL]	minimal inhibitory concentrations MIC, SG 987 [2] [µg/mL]	minimal inhibitory concentrations MIC, 10670 (M. vaccae IMET 1010670) [µg/mL]	minimal inhibitory concentrations MIC, SB 66 (M aureum SB66) [µg/mL]	minimal inhibitory concentrations MIC, 134/93 [3] [µg/mL]
4-isopropylamino-6-diethyldithiocarbamoyl-5-nitropyrimidine [Subst. Nr. 1]	25	25	12.5	3.12	25	3.12
CCOc1nc(C)nc(SC(=S)N(CC)CC)c1[N+](=O)[O-] [Subst. Nr. 6, 4-ethoxy-2-methyl-6-diethyldithiocarbamoyl-5-nitropyrimidine]	12.5 (≈ 37.8 µM)	3.12 (≈ 9.44 µM)	12.5 (≈ 37.8 µM)	3.12 (≈ 9.44 µM)	12.5 (≈ 37.8 µM)	3.12 (≈ 9.44 µM)
CCN(CC)C(=S)Sc1ncnc(NC2CC2)c1[N+](=O)[O-] [Subst. Nr. 2, 4-cyclopropylamino-6-diethyldithiocarbamoyl-5-nitropyrimidine]	6.25 (≈ 19.1 µM)	3.12 (≈ 9.53 µM)	6.25 (≈ 19.1 µM)	3.12 (≈ 9.53 µM)	12.5 (≈ 38.2 µM)	1.56 (≈ 4.76 µM)
CNc1ncnc(SC(=S)N(C)C)c1[N+](=O)[O-] [Subst. Nr. 7, 4-methylamino-6-dimethyldithiocarbamoyl-5-nitropyrimidine]	6.25 (≈ 22.9 µM)	3.12 (≈ 11.4 µM)	12.5 (≈ 45.7 µM)	3.12 (≈ 11.4 µM)	6.25 (≈ 22.9 µM)	1.56 (≈ 5.71 µM)
NC(=O)c1cc([N+](=O)[O-])cc([N+](=O)[O-])c1SC(=S)N1CCCCCC1 [Subst. Nr. 16, 3,5-dinitro-2-hexamethylenedithiocarbamoylbenzamide]	0.8 (≈ 2.08 µM)	12.5 (≈ 32.5 µM)	6.25 (≈ 16.3 µM)	0.1 (≈ 0.26 µM)	6.25 (≈ 16.3 µM)	6.25 (≈ 16.3 µM)
O=[N+]([O-])c1cnc(SC(=S)N2CCCC2)c([N+](=O)[O-])c1 [Subst. Nr. 18, 3,5-dinitro-2-tetramethylenedithiocarbamoylpyridine]	3.12 (≈ 9.93 µM)	12.5 (≈ 39.8 µM)	6.25 (≈ 19.9 µM)	3.12 (≈ 9.93 µM)	3.12 (≈ 9.93 µM)	1.56 (≈ 4.96 µM)
CCN(CC)C(=S)Sc1c(C#N)cc([N+](=O)[O-])cc1[N+](=O)[O-] [Subst. Nr. 3, 3,5-dinitro-2-diethyldithiocarbamoylbenzonitril]	6.25 (≈ 18.4 µM)	6.25 (≈ 18.4 µM)	12.5 (≈ 36.7 µM)	3.12 (≈ 9.17 µM)	12.5 (≈ 36.7 µM)	3.12 (≈ 9.17 µM)
CCOc1nc(C)nc(SC(=S)N2CCCC2)c1[N+](=O)[O-] [Subst. Nr. 10, 4-ethoxy-2-methyl-6-tetramethylenedithiocarbamoyl-5-nitropyrimidine]	50 (≈ 152 µM)	0.8 (≈ 2.44 µM)	12.5 (≈ 38.1 µM)	12.5 (≈ 38.1 µM)	25 (≈ 76.1 µM)	3.12 (≈ 9.5 µM)
CN(C)C(=S)Sc1c(C#N)cc([N+](=O)[O-])cc1[N+](=O)[O-] [Subst. Nr. 9, 3,5-dinitro-2-dimethyldithiocarbamoylbenzonitrile]	6.25 (≈ 20 µM)	0.4 (≈ 1.28 µM)	3.12 (≈ 9.99 µM)	3.12 (≈ 9.99 µM)	1.56 (≈ 4.99 µM)	0.4 (≈ 1.28 µM)
COc1ncnc(SC(=S)N2CCCC2)c1[N+](=O)[O-] [Subst. Nr. 15, 4-methoxy-6-tetramethylenedithiocarbamoyl-5-nitropyrimidine]	1.56 (≈ 5.19 µM)	3.12 (≈ 10.4 µM)	3.12 (≈ 10.4 µM)	0.8 (≈ 2.66 µM)	1.56 (≈ 5.19 µM)	3.12 (≈ 10.4 µM)
CCN(CC)C(=S)Sc1ncnc(NC)c1[N+](=O)[O-] [Subst. Nr. 4, 4-methylamino-6-diethyldithiocarbamoyl-5-nitropyrimidine]	6.25 (≈ 20.7 µM)	1.56 (≈ 5.18 µM)	6.25 (≈ 20.7 µM)	1.56 (≈ 5.18 µM)	6.24 (≈ 20.7 µM)	0.78 (≈ 2.59 µM)
CCN(CC)C(=S)Sc1ncnc(N(C)O)c1[N+](=O)[O-] [Subst. Nr. 5, 4-methylhydroxyamino-6-diethyldithiocarbamoyl-5-nitropyrimidine]	6.25 (≈ 19.7 µM)	3.12 (≈ 9.83 µM)	6.25 (≈ 19.7 µM)	3.12 (≈ 9.83 µM)	12.5 (≈ 39.4 µM)	1.56 (≈ 4.91 µM)
CNc1ncnc(SC(=S)N2CCCC2)c1[N+](=O)[O-] [Subst. Nr. 12, 4-methylamino-6-tetramethylenedithiocarbamoyl-5-nitropyrimidine]	0.8 (≈ 2.67 µM)	–	3.12 (≈ 10.4 µM)	0.8 (≈ 2.67 µM)	1.56 (≈ 5.21 µM)	–
CCCOc1ncnc(SC(=S)N(C)C)c1[N+](=O)[O-] [Subst. Nr. 11, 4-propoxy-6-dimethyldithiocarbamoyl-5-nitropyrimidine]	1.56 (≈ 5.16 µM)	0.8 (≈ 2.65 µM)	6.25 (≈ 20.7 µM)	0.8 (≈ 2.65 µM)	1.56 (≈ 5.16 µM)	0.8 (≈ 2.65 µM)
CN(C)c1ncnc(SC(=S)N2CCCC2)c1[N+](=O)[O-] [Subst. Nr. 13, 4-dimethylamino-6-tetramethylenedithiocarbamoyl-5-nitropyrimidine]	1.56 (≈ 4.98 µM)	1.56 (≈ 4.98 µM)	3.12 (≈ 9.96 µM)	1.56 (≈ 4.98 µM)	3.12 (≈ 9.96 µM)	3.12 (≈ 9.96 µM)
COc1ncnc(SC(=S)N(C)C)c1[N+](=O)[O-] [Subst. Nr. 14, 4-methoxy-6-dimethyldithiocarbamoyl-5-nitropyrimidine]	0.8 (≈ 2.92 µM)	3.12 (≈ 11.4 µM)	3.12 (≈ 11.4 µM)	3.12 (≈ 11.4 µM)	0.8 (≈ 2.92 µM)	6.25 (≈ 22.8 µM)
NC(=O)c1cc([N+](=O)[O-])cc([N+](=O)[O-])c1SC(=S)N1CCCC1 [Subst. Nr. 17, 3,5-dinitro-2-tetramethylenedithiocarbamoylbenzamide]	6.25 (≈ 17.5 µM)	12.5 (≈ 35.1 µM)	50 (≈ 140 µM)	0.4 (≈ 1.12 µM)	6.25 (≈ 17.5 µM)	25 (≈ 70.1 µM)
CN(C)C(=S)Sc1ncnc(N(C)C)c1[N+](=O)[O-] [Subst. Nr. 8, 4-dimethylamino-6-dimethyldithiocarbamoyl-5-nitropyrimidine]	12.5 (≈ 43.5 µM)	6.52 (≈ 22.7 µM)	12.5 (≈ 43.5 µM)	3.12 (≈ 10.9 µM)	6.25 (≈ 21.7 µM)	3.12 (≈ 10.9 µM)
